Data reported in patent publication US6096784A, “Inhibitors of oleamide hydrolase” (The Scripps Research Institute, priority 1999, dated 2000).
In brackets after ≈: the same amount, converted by molar mass. Where two headings read alike, the source gives them in different places. Blank lines part the entries; values can stand above or below the compound they belong to.

Assays:
[1] = target: T1, oleamide hydrolase (Rattus norvegicus, UniProt P97612); experiment: Oleamide hydrolase inhibition, ammonia production measured with ion-selective electrode; format: biochemical
T1 construct: The enzyme was used as a crude, heterogenous, membrane-containing preparation from rat liver; from tissue; host or cells: rat liver plasma membrane preparation (12-14 rat livers), crude
T1 sequence (P97612 1-579): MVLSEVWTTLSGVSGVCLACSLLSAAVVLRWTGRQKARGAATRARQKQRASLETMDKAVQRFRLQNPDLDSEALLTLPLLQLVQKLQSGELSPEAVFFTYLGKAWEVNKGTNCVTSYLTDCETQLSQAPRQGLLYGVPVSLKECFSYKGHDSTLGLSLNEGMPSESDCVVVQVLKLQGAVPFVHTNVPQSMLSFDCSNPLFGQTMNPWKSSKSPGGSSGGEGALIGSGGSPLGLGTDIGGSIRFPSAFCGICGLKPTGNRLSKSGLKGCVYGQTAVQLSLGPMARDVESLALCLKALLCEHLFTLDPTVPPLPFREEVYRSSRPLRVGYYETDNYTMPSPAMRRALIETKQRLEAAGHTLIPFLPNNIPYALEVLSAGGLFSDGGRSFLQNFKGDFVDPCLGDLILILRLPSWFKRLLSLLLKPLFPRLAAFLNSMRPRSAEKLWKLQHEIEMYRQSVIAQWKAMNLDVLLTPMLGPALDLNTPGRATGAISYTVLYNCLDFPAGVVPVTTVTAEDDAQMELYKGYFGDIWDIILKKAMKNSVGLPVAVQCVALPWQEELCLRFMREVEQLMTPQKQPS
Description: Error values presented with Ki s should be considered goodness-of-fit estimates derived from propagation of errors treatment of data. They are not necessarily an indication of reproducibility.
Twelve to fourteen rat livers were sectioned and placed in 300 mL of 1 mM NaHCO3. The solution of diced liver was strained and washed with additional 300 mL of 1 mM NaHCO3. Any conspicuous connective tissue was removed. The liver was transferred to a fresh 800 mL of 1 mM NaHCO3, stirred and then transferred in 400 mL aliquots to a blender. Blended liver aliquots were combined and filtered through 8 layers of cheesecloth. This was diluted to 1.0 L with 1 μM NaHCO3 and centrifuged at 6000 rpm for 20 minutes at 40° C. (Beckman JA-17 rotor). The supernatant was decanted, the pellets resuspended in 1 mM NaHCO3, combined and dounce homogenized. Centrifugation, decantation and resuspension/homogenization were repeated to give a final volume of approximately 90 mL. The homogenate was added to 2 volume equivalents of 67% sucrose, mixed thoroughly, and transferred to ultracentrifuge compatible tubes. The tubes were topped with 30% sucrose and spun at 27,000 for 2 hours (SW-28 rotor). The middle yellow band was removed from the sucrose gradient, combined, resuspended in 1 mM NaHCO3, and dounce homogenized. The sample was further centrifuged at 17,000 rpm for 45 minutes at 4° C. (JA-17 rotor). The supernatant was removed, the pellets resuspended in 100 mM Na2 CO3, dounce homogenized and left on ice for 30 minutes. The solution was centrifuged at 27,000 rpm for 1 hour (SW-28 rotor), the supernatant was decanted and the pellet resuspended in 15 mL of 50 mM Tris HCl, pH 7.4 with 1 mM EDTA, and homogenized with a dounce homogenizer. This material was divided into multiple aliquots and frozen at -78° C. until use. Each enzyme sample was frozen once only.

[2] = Extent of hydration / hemiacetal formation of inhibitor carbonyl by 1H and 13C NMR; format: physicochemical; settings: for conversion to hemiacetal: CD3OD, NMR
Text: FIG. 2 illustrates ^1 H NMR and ^13 C NMR data to establish and quantitate the addition of CD3 OD or D2 O to the electrophilic carbonyl in CD3 OD or acetone-d6. […] Expected trends follow 11>12>8>6≥4.

[3] = tested on: rat; experiment: Sleep monitoring in rat after intra-abdominal injection, electrophysiological methods; format: in vivo; settings: intraperitoneal, mineral oil, four hours
Description: Another aspect of the invention is directed to a method for inducing sleep within an oleamide sensitive animal by administrating an effective dose of an […] of oleamide hydrolase. A preferred […] is compound 6. Compound 6 was dissolved in mineral oil and an effective dose was injected into the peritoneum of a rat by intra-abdominal injection. Sleep was monitored for the following four hours. Total sleep time was determined by standard electrophysiological methods. An increase of deep slow-wave sleep (SWS) with a reduction of the waking period was observed.

[4] = target: T1, oleamide hydrolase; experiment: pH-rate dependence of oleamide hydrolase cleavage of oleamide; format: biochemical; settings: cleavage of compound 1
Description: FIG. 12 illustrates the equations used to determine the pH-Rate dependence. The rate was obtained from the linear portion of the curve which was fit using a standard least squares procedure. These rates were replotted against pH and fit with the shown equation by a weighted non-linear least-squares method.
Crude enzyme was added to a solution of 200 μM oleamide (approximately the solubility limit) 1 in 20 mL buffer at the appropriate pH, containing 5% DMSO. (Concentrations of up to 20% DMSO had only minimal effect on enzyme rates.) A 50 mM sodium citrate/Bis-tris buffer was used for data points in the pH 4-9 range. A 50 mM Bis-tris/CAPS was used for data points in the 8-11 range. At pH 12, the solution was assumed to be self-buffering. At periodic time intervals, 1 mL aliquots were removed and diluted with 9 mL pH 14 buffer. Ammonia concentrations were measured with an ion-selective ammonia electrode (Orion) connected to a 720 A meter (Orion), calibrated against known standards. The rate was obtained from the linear portion of the curve which was fit using a standard least-squares procedure. […]

[5] = Solubility of oleamide in assay buffer; format: physicochemical; settings: buffer with 5% dmso, organic solvent or mixture; buffer containing 5% DMSO; read-out: solubility limit
[6] = Ammonia production from oleamide in the absence of enzyme; format: physicochemical; settings: 100 μM oleamide, pH 10.0
Description: The potency of the these compounds against oleamide hydrolysis was evaluated using an ion-selective ammonia electrode (ATI/Orion) to directly measure ammonia formation as the product of the reaction. All Ki s except for that of oleic acid were determined by the Dixon method. (X intercepts of weighted linear fits of [I] versus 1/Rate plots at a constant substrate concentration were converted to Ki 's using the formula Ki =-Xint /[1+[S]/Km ].) The oleic acid Ki was obtained from a non-linear weighted least-squares fit of rate versus substrate and inhibitor concentrations. The assays were done with constant stirring in 10 mL 50 mM CAPS buffer (Sigma) adjusted to pH 10.0, the pH at which the rate of enzymatically catalyzed oleamide hydrolysis is maximal. In all cases which involved Dixon analysis, the substrate concentration was 100 μM. The oleic acid Ki was determined over a range of substrate concentrations from 10 to 100 μM. Substrate and inhibitors were dissolved in DMSO prior to addition to the 50 mM CAPS buffer, generating a final DMSO assay concentration of 1.67%. […] The enzyme concentration was adjusted to produce a rate of roughly 0.2 μM/min in the absence of inhibitor and the rate of ammonia production observed over a period of 7 to 10 minutes.
The enzyme was used as a crude, heterogenous, membrane-containing preparation from rat liver. […]

[7] = tested on: animals; settings: cited from earlier work; for somnolescent activity: in vivo
[8] = target: T1, oleamide hydrolase; experiment: Determination of Km for oleamide (Lineweaver-Burke plot); format: biochemical
Description: The potency of the inhibitors was determined using an ion selective electrode to measure the production of ammonia as the result of the hydrolysis of 100 μM oleamide (~20 Km) by a membrane bound preparation of oleamide hydrolase. […] Inhibition constants were determined by the Dixon method (FIGS. 4-6).
The enzyme was used as a crude, heterogenous, membrane-containing preparation from rat liver. […] Within solubility limits, all inhibitors achieved 100% inhibition of activity at concentrations of greater than 100 Ki. No detectable activity was found in the absence of added oleamide.
The Km for oleamide was determined as the average Km obtained from four independent assays. Each independent Km was obtained from weighted linear fit of data in a Lineweaver-Burke plot. A fifth concurring Km was obtained as a result of the determination of oleic acid inhibition by non-linear methods. The rate data was fit with the standard Michaelis-Menten kinetic equation.

[9] = pH 10.0, 100 μM oleamide, Dixon method, read-out: Ki
[10] = pH 10.0, 100 μM oleamide, Dixon method, read-out: inhibition constant (Ki,app)

SMILES: O=C(O)CN(CCN(CC(=O)O)CC(=O)O)CC(=O)O [EDTA, reference compound]
inhibition of oleamide hydrolase (in words) [1]: not by 1 mM EDTA

inhibition of oleamide hydrolase (in words) [1]: poor inhibition
SMILES: CCCCCCCC/C=C\CCCCCCCC(OC)OC [Compound 16]

conversion to hemiacetal [2]: 48%
SMILES: CCCCCCCC/C=C\CCCCCCC(=O)C(N)=O [Compound 6, 2-Oxo-9Z-octadecenamide]
increase of deep slow-wave sleep (SWS) [3]: approximately 30%
reduction of waking [3]: a similar percent of reduction of waking

inhibition of oleamide hydrolase (in words) [1]: can be inhibited
SMILES: c1cc(SSc2ccncc2)ccn1 [4,4'-dithiodipyridine disulfide, reference compound]

SMILES: CCCCCCCC/C=C\CCCCCCCC(N)=O [Compound 1, cis-9-octadecenamide]
pH of rate maximum [4]: 10.0
solubility [5]: ~200 µM (≈ 56.3 µg/mL)
rate of ammonia production in the absence of enzyme [6]: only a very minimal rate of ammonia production
quantity inducing physiological sleep ([7]; injected intravascularly): nanomolar quantities
dependence of reaction rate on substrate concentration ([8]; 30-100 μM): essentially a zero order dependence on substrate concentration
Km ([8]; average of four independent assays): 5 ± 2 µM

conversion to hemiacetal [2]: 47%
SMILES: CCCCCCCC/C=C\CCCCCCCC=O [Compound 4]

mode of binding (in words) [1]: appeared to bind reversibly
Ki [1, 9]: 300 nM
SMILES: CCCCCCCC/C=C\CCCCCCC(Cl)C(=O)O (stereo not drawn) [Compound 20, 2-Chlorcoleic acid]

SMILES: CCCCCCCC/C=C/CCCCCCCC(=O)C(F)(F)F [Compound 14, 1,1,1-Trifluoro-10E-nonadecen-2-one]
hydration of carbonyl (in words) [2]: almost entirely as hydrates

SMILES: CCCCCCCC/C=C\CCCCCCCC(=O)O [oleic acid, cis-9-octadecenoic acid, reference compound]
Ki ([1]; pH 10.0, non-linear weighted least-squares fit, 10 to 100 μM oleamide, read-out: Ki): 6000 nM
somnolescent activity [7]: neither of which demonstrate somnolescent activity

hydration of carbonyl (in words) [2]: fully hydrated
conversion to hemiacetal [2]: 100%
Ki [1, 10]: 150 nM
SMILES: CCCCCCCCCCCCCCCC(=O)C(O)(O)C(=O)OC(C)(C)C [Compound 11, tert-Butyl 3-Oxo-2,2-dihydroxyoctadecanoate]

relative binding (in words) ([1]; comparison between inhibitors): binds more tightly
SMILES: CCCCCCCC/C=C\CCCCCCCC(=O)C(N)=O [Compound 7, 2-Oxo-10Z-nonadecenamide]

SMILES: CCCCCCCC/C=C\CCCCCCCC(=O)C(F)(F)F [Compound 12, 1,1,1-Trifluoro-10Z-nonadecen-2-one]
hydration of carbonyl (in words) [2]: almost entirely as hydrates
conversion to hemiacetal [2]: 100%
Ki [1]: 1.2 nM
preference for cis double bond at 9 position [1]: approximately an order of magnitude more tightly than the trans double bond containing 14 or the saturated derivative 15
relative binding (in words) [1]: bind equally tightly
type of inhibition (Lineweaver-Burke plot) [1]: competitive

hydration of carbonyl (in words) [2]: almost entirely as hydrates
SMILES: CCCCCCCCCCCCCCCCCC(=O)C(F)(F)F [Compound 15]

hydration of carbonyl (in words) [2]: almost entirely as hydrates
SMILES: CCCCCCCC/C=C\CCCCCCC(=O)C(F)(F)F [Compound 13, 1,1,1-Trifluoro-9Z-octadecen-2-one]

SMILES: N [ammonia]
somnolescent activity [7]: neither of which demonstrate somnolescent activity

conversion to hemiacetal [2]: 75%
increase in binding affinity, C-2 versus C-1 position of electrophilic carbonyl (α-keto esters) ([1]; 8 versus 9): 6 fold
relative binding (in words) ([1]; comparison between inhibitors): bind equally tightly
Ki [1, 10]: 1.4 nM
SMILES: CCCCCCCC/C=C\CCCCCCC(=O)C(=O)OCC [Compound 8, Ethyl 2-Oxo-9Z-octadecenoate]

inhibition of oleamide hydrolase (in words) [1]: poor inhibition
SMILES: CCCCCCCC/C=C\CCCCCCC(O)C(N)=O (stereo not drawn) [Compound 17, 2-Hydroxy-9Z-octadecenamide]

time dependence of inhibitory activity ([1]; first fifteen minutes of incubation, up to solubility limits): time independent but moderate inhibition
Ki [1, 9]: 700 nM
SMILES: CCCCCCCC/C=C\CCCCCCCC(=O)CCl [Compound 3, 1-Chloro-10Z-nonadecen-2-one]

relative binding, C-2 versus C-1 position of electrophilic carbonyl (aldehydes) ([1]; 5 versus 4): five times more tightly than 4
SMILES: CCCCCCCC/C=C\CCCCCCC=O [Compound 5, 8Z-Heptadecenal]

SMILES: [Cl][Hg][Cl] [HgCl2, reference compound]
inhibition of oleamide hydrolase (in words) [1]: can be inhibited
IC50 ([1]; HgCl2): 700 nM
Ki ([1]; HgCl2, read-out: Ki, app): 37 nM

Ki [1, 9]: 18000 nM
SMILES: CCCCCCCC/C=C\CCCCCCCC(=O)C=[N+]=[N-] [Compound 21, 1-Diazo-10Z-nonadecen-2-one]

SMILES: O=S(=O)(F)Cc1ccccc1 [phenylmethylsulfonyl fluoride, reference compound]
inhibition of oleamide hydrolase (in words) [1]: can be inhibited

inhibition of oleamide hydrolase (in words) [1]: poor inhibition
SMILES: CCCCCCCC/C=C\CCCCCCC(O)C(=O)O (stereo not drawn) [Compound 18]
